From patent US10561667B2, “Orbit azine-fumarate, hydrate, crystal form and preparation method therefor” (SHENZHEN ZHENXING MEDICAL TECHNOLOGY CO., LTD., priority 2015, dated 2020)

How the values were obtained:
Hygroscopicity = format: physicochemical
Description: (§1) 3.2 Change in Appearance and Hygroscopicity (10 Days)
Hygroscopicity was measured by reference to methods in Appendix X IX J Laboratory Procedure on Determination of Hygroscopicity of Drugs in Pharmacopoeia of The People's Republic of China (2010).

[1] = tested on: human gastric adenocarcinoma cell MGC-803; assay: MTT proliferation inhibition, MGC-803; format: cell-based; settings: MGC-803, MTT
Excerpt: (§2) The tumor cells included, but were not limited to the following cells: human colorectal cancer cell SW480, human gastric adenocarcinoma cell MGC-803, human […], human lymphoma cell U937, human liver cancer cell Hep-G2, human cervical cancer cell Hela, human neuroglioma cell BT-325, human medulloblastoma D341 Med, and human gallbladder cancer cell GBC-SD.
(§3) Experimental method: cells in exponential growth phase were collected, and seeded to a 96-well cell culture plate, at a final concentration of 5×10^3 cells/90 μl/well. […] After the treatment for 72 h, 10 μl MTT solution (5 mg/ml, Sigma) was added to each well, and the cells were further cultured for 4 h. The culture medium was discarded, 100 μl DMSO was added to each well, and dissolution was carried out under rotation on a shaking table for 10 min.

[2] = tested on: human small cell lung adenocarcinoma cell A549; assay: MTT proliferation inhibition, A549; format: cell-based
Excerpt: as §2, §3

[3] = Affect factor test: related substance and transformation in crystal form (10 days); format: physicochemical; settings: for Purity, High temperature (60° C.) / Purity, High humidity (RH = 92.5%) / Purity, Illumination (ultraviolet lamp): 10 days; for Crystal form: after 10 days at high temperature, high humidity or illumination; for Purity of raw material: before the affect factor test (baseline); for Stability of purity: high temperature, high humidity, or illumination, 10 days later
Excerpt: (§4) 3. Affect Factor Test of Different Crystal Forms
3.1 Related Substance and Transformation in Crystal Form (10 Days)

[4] = tested on: human gallbladder cancer cell GBC-SD; assay: MTT proliferation inhibition, GBC-SD; format: cell-based; settings: 72 h
Excerpt: as §2, §3

[5] = tested on: human colorectal cancer cell SW480; assay: MTT proliferation inhibition, SW480; format: cell-based
Excerpt: as §2, §3

[6] = tested on: human medulloblastoma D341 Med; assay: MTT proliferation inhibition, D341 Med; format: cell-based; settings: 72 h
Excerpt: as §2, §3

[7] = tested on: human liver cancer cell Hep-G2; assay: MTT proliferation inhibition, Hep-G2; format: cell-based
Excerpt: as §2, §3

[8] = tested on: human cervical cancer cell Hela; assay: MTT proliferation inhibition, Hela; format: cell-based; settings: 72 h
Excerpt: as §2, §3

human lymphoma cell U937 = assay: MTT proliferation inhibition, U937; format: cell-based
Excerpt: as §2, §3

[9] = Stability of crystal forms in sodium phosphate/hydrochloric acid buffer pH=6.8 (37° C.); format: physicochemical; settings: for Purity: pH = 6.8 buffer, 37° C.
Description: 1. Test on Stability of Crystal Forms in Different Media
1.1 Stability of Different Crystal Forms in Sodium Phosphate/Hydrochloric Acid Buffer pH=6.8 (37° C.)

[10] = tested on: human neuroglioma cell BT-325; assay: MTT proliferation inhibition, BT-325; format: cell-based; settings: BT-325, MTT, 72 h
Excerpt: as §2, §3

[11] = Affect factor test: change in appearance (10 days); format: physicochemical
Excerpt: as §4, §1

[12] = Stability of crystal forms in hydrochloric acid solution pH=1.2 (37° C.); format: physicochemical; settings: for Purity: pH = 1.2 hydrochloric acid solution, 37° C.; for Change of purity: stirred in hydrochloric acid medium pH=1.2 for 24 h
Description: 1.2 Stability of Different Crystal Forms in Hydrochloric Acid Solution with pH=1.2 (37° C.)

[13] = 72 h, listed as an amorphous form
[14] = 0 h (baseline), monofumarate monohydrate

## C=CCc1cccc(/C=N/NC(=O)CN2CCCN(Cc3ccccc3)CC2)c1O [Amorphous form, orbit azine monofumarate]
Hygroscopicity; 2014 Nov. 17 to 2014 Nov. 24
  Hygroscopicity, weight increase/%: 118.620%
Hygroscopicity; moisture absorption
  Hygroscopicity: significant weight increase
[1]; [13]
  IC50: 1600 nM
[2]; [13]
  IC50: 2970 nM
[3]
  Purity, High temperature (60° C.): 95.989%
  Purity, High humidity (RH = 92.5%): 97.537%
  Crystal form: converted to Form B under the condition of high humidity
  Purity of raw material: 97.980%
  Purity, Illumination (ultraviolet lamp): 96.880%
[4]; listed as an amorphous form
  IC50: 6580 nM
[5]; [13]
  IC50: 1780 nM
[6]; listed as an amorphous form
  IC50: 447 nM
[7]; [13]
  IC50: 8380 nM
[8]; listed as an amorphous form
  IC50: 5650 nM
Human lymphoma cell U937; [13]
  IC50: 418 nM
[9]; 0 h (baseline)
  Purity: 97.980%
[9]; 4 h
  Purity: 87.266%
[9]; 24 h
  Purity: 85.026%
[10]; listed as an amorphous form
  IC50: 2520 nM

## C=CCc1cccc(/C=N/NC(=O)CN2CCCN(Cc3ccccc3)CC2)c1O [Form A, orbit azine monofumarate]
Hygroscopicity; product of Example 1
  Water absorbability: no water absorbability
[1]; 72 h
  IC50: 1360 nM
[2]; 72 h
  IC50: 2990 nM
[3]
  Purity, High temperature (60° C.): 97.665%
  Purity, High humidity (RH = 92.5%): 97.699%
  Crystal form: Form A
  Purity of raw material: 98.096%
  Stability of purity: relatively stable
  Purity, Illumination (ultraviolet lamp): 97.775%
[4]
  IC50: 6480 nM
[5]; 72 h
  IC50: 1770 nM
[11]; High humidity
  Appearance: white solid
[11]; High temperature
  Appearance: white solid
[11]; Illumination
  Appearance: white solid
[6]
  IC50: 433 nM
[7]; 72 h
  IC50: 8410 nM
[8]
  IC50: 5680 nM
Human lymphoma cell U937; 72 h
  IC50: 425 nM
[9]; 0 h (baseline)
  Purity: 98.069%
[9]; 4 h
  Purity: 87.153%
[9]; 24 h
  Purity: 84.864%
[10]
  IC50: 2880 nM

## C=CCc1cccc(/C=N/NC(=O)CN2CCCN(Cc3ccccc3)CC2)c1O [Form B, orbit azine monofumarate monohydrate]
[1]; 72 h, monofumarate monohydrate
  IC50: 1390 nM
[2]; 72 h, monofumarate monohydrate
  IC50: 2900 nM
[3]; monofumarate monohydrate
  Purity, High temperature (60° C.): 97.809%
  Purity, High humidity (RH = 92.5%): 98.176%
  Crystal form: Form B
  Purity of raw material: 98.413%
  Purity, Illumination (ultraviolet lamp): 98.116%
[3]
  Stability of purity: relatively stable
[4]; monofumarate monohydrate
  IC50: 6160 nM
[5]; 72 h, monofumarate monohydrate
  IC50: 1980 nM
[11]; High humidity, monofumarate monohydrate
  Appearance: white solid
[11]; High temperature, monofumarate monohydrate
  Appearance: white solid
[11]; Illumination, monofumarate monohydrate
  Appearance: white solid
[6]; monofumarate monohydrate
  IC50: 430 nM
[12]; hydrochloric acid medium pH=1.2
  Extent of degradation compared: degraded to a slightly less extent
[12]; [14]
  Purity: 98.413%
[12]; 24 h, monofumarate monohydrate
  Purity: 79.443%
[12]; 48 h, monofumarate monohydrate
  Purity: 78.122%
[12]
  Change of purity: decreased greatly
[7]; 72 h, monofumarate monohydrate
  IC50: 8320 nM
[8]; monofumarate monohydrate
  IC50: 5760 nM
Human lymphoma cell U937; 72 h, monofumarate monohydrate
  IC50: 495 nM
[9]; pH = 6.8, 37° C.
  Degradation in the medium with pH=6.8: degraded to a slightly less extent
[9]; [14]
  Purity: 98.413%
[9]; 4 h, monofumarate monohydrate
  Purity: 93.112%
[9]; 24 h, monofumarate monohydrate
  Purity: 90.266%
[10]; monofumarate monohydrate
  IC50: 2310 nM

## C=CCc1cccc(/C=N/NC(=O)CN2CCCN(Cc3ccccc3)CC2)c1O [Form C, orbit azine difumarate]
[1]; 72 h
  IC50: 1280 nM
[2]; 72 h
  IC50: 3070 nM
[3]
  Purity, High temperature (60° C.): 97.244%
  Purity, High humidity (RH = 92.5%): 97.733%
  Crystal form: Form C
  Purity of raw material: 97.865%
  Purity, Illumination (ultraviolet lamp): 95.696%
[4]
  IC50: 6370 nM
[5]; 72 h
  IC50: 1920 nM
[11]
  Change of color: turned slightly yellow
[11]; High humidity
  Appearance: white solid
[11]; High temperature
  Appearance: white solid
[6]
  IC50: 411 nM
[12]; 0 h (baseline)
  Purity: 97.865%
[12]; 24 h
  Purity: 72.042%
[12]; 48 h
  Purity: 71.017%
[12]
  Change of purity: decreased greatly
[7]; 72 h
  IC50: 8210 nM
[8]
  IC50: 5490 nM
Human lymphoma cell U937; 72 h
  IC50: 391 nM
[9]; 0 h (baseline)
  Purity: 94.584%
[9]; 4 h
  Purity: 83.292%
[9]; 24 h
  Purity: 82.680%
[10]
  IC50: 2650 nM

## C=CCc1cccc(/C=N/NC(=O)CN2CCCN(Cc3ccccc3)CC2)c1O [Form D, orbit azine difumarate]
[1]; Homo sapiens, MGC-803, 72 h
  IC50: 1450 nM
[2]; Homo sapiens, A549, 72 h
  IC50: 2870 nM
[4]; Homo sapiens
  IC50: 6950 nM
[5]; Homo sapiens, SW480, 72 h
  IC50: 1670 nM
[6]; Homo sapiens
  IC50: 484 nM
[7]; Homo sapiens, HepG2, 72 h
  IC50: 8180 nM
[8]; Homo sapiens, HeLa
  IC50: 5170 nM
Human lymphoma cell U937; Homo sapiens, U-937, 72 h
  IC50: 414 nM
[9]; 0 h (baseline)
  Purity: 97.999%
[9]; 4 h
  Purity: 85.418%
[9]; 24 h
  Purity: 84.552%
[10]; Homo sapiens
  IC50: 2710 nM
